Our source for the IC50 values is patent EP2928504B1, “PROTEIN-POLYMER-DRUG CONJUGATES” (Mersana Therapeutics, Inc., priority 2012, dated 2014).

Where two headings read alike, the source gives them in different places.

Test systems include MCF7; NCI-N87; HCT15.
Holding throughout (assay): Cell viability assay (Cell Titer-Glo)
Common to all, as to type: cell-based
(In general: ATP-based viability assays read luminescence as a measure of living cells.)

Another assay has as its system BT474. The settings on record: Homo sapiens, BT-474, 72 h.
A further assay concerns SKBR3. To be noted: Homo sapiens, SK-BR-3, 72 h.
Where [1] appears, read: Table VIII, drug compounds, read-out: BT474 IC50.
[2] abbreviates: Table VIII, drug compounds, read-out: SKBR3 IC50.
[3] abbreviates: Homo sapiens, MCF7, 72 h, Table VIII, drug compounds, read-out: MCF7 IC50.
Setting [4] is: Homo sapiens, NCI-N87, 72 h, Table VIII, drug compounds, read-out: N87 IC50.
Setting [5] is: Homo sapiens, HCT-15, 72 h, Table VIII, drug compounds, read-out: HCT15 IC50.

Protocol for BT474: (§1) PBRM-drug polymer conjugates were evaluated for their tumor viability using Cell Titer-Glo (Promega Corp). Cells were plated in black walled 96-well plate and allowed to adhere overnight at 37°C in a humidified atmosphere of 5% CO2. HER2 expressing cells SKBR3, BT474, NCI-N87 and cells expressing low levels of HER2-MCF7 were plated at a density of 5,000 cells per well. The next day the medium was replaced with 50 µL fresh medium and 50 µL of 2x stocks of PBRM-drug polymer conjugate, drug polymer conjugate or drug were added to appropriate wells, mixed and incubated for 72 h. Cell Titer-Glo reagent was added to the wells at room temperature and the luminescent signal was measured after 10 min using a SpectraMax M5 plate reader (Molecular Devices). Dose response curves were generated using SoftMax Pro software. IC50 values were determined from four-parameter curve fitting.
Protocol for MCF7: as §1
Protocol for NCI-N87: as §1
Protocol for SKBR3: as §1

`CCC(C)C(C(CC(=O)N1CCCC1C(OC)C(C)C(=O)NC(Cc1ccccc1)C(=O)NO)OC)N(C)C(=O)C(NC(=O)C(C(C)C)N(C)C)C(C)C` (stereo not shown) [drawing 765 (R40 = -OH)]: the IC50 in the assay with BT474 (setting [1]) is 20.6 nM; with SKBR3 (setting [2]), 12 nM; in the assay on MCF7 (setting [3]), 39 nM.
For `CCC(C)C(C(CC(=O)N1CCCC1C(OC)C(C)C(=O)NC(Cc1ccccc1)C(=O)NCC(C)O)OC)N(C)C(=O)C(NC(=O)C(C(C)C)N(C)C)C(C)C` (stereo not shown) [drawing 772], the IC50 in the assay on NCI-N87 (Table VIII, drug compounds, 72 h, read-out: N87 IC50) was found to be 0.78 nM; in the assay on MCF7 (Table VIII, drug compounds, 72 h, read-out: MCF7 IC50) it was 2.06 nM; in the assay on HCT15 (Table VIII, drug compounds, 72 h, read-out: HCT15 IC50) it was 32.4 nM.
`COc1cc2cc(C(=O)N3C[C@@H](CCl)c4c3cc(OC(=O)[C@@H]3CCCN3)c3ccccc43)[nH]c2c(OC)c1OC`: the IC50 is 0.93 nM in the assay with NCI-N87 (setting [4]), 4.55 nM in the assay on BT474 (setting [1]), 1.34 nM in the assay on SKBR3 (setting [2]) and 1.53 nM with HCT15 (setting [5]).
As to `COc1cc2cc(C(=O)N3C[C@@H](CCl)c4c3cc(OC(=O)N(C)CCO)c3ccccc43)[nH]c2c(OC)c1OC`, the IC50 in the assay with NCI-N87 (setting [4]) came to 30 nM; in the assay on BT474 (setting [1]), 68 nM; in the assay on SKBR3 (setting [2]), 21.5 nM; in the assay with MCF7 (setting [3]), 100 nM; in the assay with HCT15 (setting [5]), 100 nM.
Turning to `CCC(C)C(C(CC(=O)N1CCCC1C(OC)C(C)C(=O)NC(Cc1ccccc1)C(=O)OC)OC)N(C)C(=O)C(NC(=O)C(C(C)C)N(C)C)C(C)C` (stereo not shown) [drawing 761 (R42 = -CH3)], the IC50 was found to be 0.03 nM with NCI-N87 (setting [4]), 0.09 nM in the assay on BT474 (setting [1]), 0.27 nM in the assay on MCF7 (setting [3]) and 0.41 nM in the assay on HCT15 (setting [5]).
For the compound `CCC(C)C(C(CC(=O)N1CCCC1C(OC)C(C)C(=O)NC(Cc1ccccc1)C(=O)NCCCOC(=O)C1CCCN1)OC)N(C)C(=O)C(NC(=O)C(C(C)C)N(C)C)C(C)C` (stereo not shown), the IC50 was found to be 1.51 nM with NCI-N87 (setting [4]); 3.5 nM in the assay with BT474 (setting [1]); 0.88 nM in the assay with SKBR3 (setting [2]); 3.3 nM in the assay on MCF7 (setting [3]); 85.7 nM in the assay with HCT15 (setting [5]).
For `CCC(C)C(C(CC(=O)N1CCCC1C(OC)C(C)C(=O)NC(Cc1ccccc1)C(=O)NCC(C)O)OC)N(C)C(=O)C(NC(=O)C(C(C)C)N(C)C)C(C)C` (stereo not shown) [drawing 771], in that order: 0.69 nM, 1.27 nM, 0.44 nM, 1.88 nM and 31.8 nM.
Consider `CCC(C)C(C(CC(=O)N1CCCC1C(OC)C(C)C(=O)NC(C)C(O)c1ccccc1)OC)N(C)C(=O)C(NC(=O)C(C(C)C)N(C)C)C(C)C` (stereo not shown) [drawing 777 (R90 = -H)], for which the IC50 in the assay with NCI-N87 (setting [4]) stood at 0.24 nM; with HCT15 (setting [5]) it was 10.1 nM.
Regarding `CCCO[C@H](C[C@H](C(C)C)N(CCC)C(=O)[C@@H](NC(=O)[C@H]1CCCCN1C)[C@@H](C)CC)c1nc(C(=O)N[C@@H](Cc2ccc(O)cc2)C[C@H](C)C(=O)O)cs1` [drawing 786 (R43 = H, R78 = -OH)], the IC50 was found to be 0.1 nM in the assay with NCI-N87 (setting [4]), 0.04 nM in the assay on BT474 (setting [1]), 0.06 nM in the assay on SKBR3 (setting [2]) and 0.29 nM in the assay with HCT15 (setting [5]).
Take `CCC(C)C(C(CC(=O)N1CCCC1C(OC)C(C)C(=O)NC(Cc1ccccc1)C(=O)NCCN)OC)N(C)C(=O)C(NC(=O)C(C(C)C)N(C)C)C(C)C` (stereo not shown): in the assay with NCI-N87 (setting [4]), the IC50 was 0.89 nM.
As for `CCCO[C@H](C[C@H](C(C)C)N(CCC)C(=O)[C@@H](NC(=O)[C@H]1CCCCN1C)[C@@H](C)CC)c1nc(C(=O)N[C@@H](Cc2ccc(OC(=O)NCCCCN)cc2)C[C@H](C)C(=O)O)cs1`, the IC50 in the assay on NCI-N87 (setting [4]) is 0.24 nM; with BT474 (setting [1]) it was 0.1 nM; in the assay with SKBR3 (setting [2]), 0.08 nM; in the assay with MCF7 (setting [3]), 0.68 nM; in the assay with HCT15 (setting [5]), 4.6 nM.
As for `COc1cc2cc(C(=O)N3C[C@@H](CCl)c4c3cc(OC(=O)CCN)c3ccccc43)[nH]c2c(OC)c1OC`, the IC50 in the assay with BT474 (setting [1]) was 6.54 nM; in the assay on SKBR3 (setting [2]), 2.07 nM; in the assay with MCF7 (setting [3]), 1.4 nM; with HCT15 (setting [5]), 2.5 nM.
`COc1cc2cc(C(=O)N3C[C@@H](CCl)c4c3cc(OC(=O)N3CCN(CCN)CC3)c3ccccc43)[nH]c2c(OC)c1OC`: the IC50 in the assay on NCI-N87 (Homo sapiens, NCI-N87, 72 h, read-out: N87 IC50, Table VIII, drug compounds) worked out at 77 nM; in the assay with BT474 (read-out: BT474 IC50, Table VIII, drug compounds) it was 100 nM; in the assay with SKBR3 (read-out: SKBR3 IC50, Table VIII, drug compounds), 100 nM; in the assay on MCF7 (Homo sapiens, MCF7, 72 h, read-out: MCF7 IC50, Table VIII, drug compounds), 100 nM; with HCT15 (Homo sapiens, HCT-15, 72 h, read-out: HCT15 IC50, Table VIII, drug compounds), 68 nM.
Regarding `CCC(C)C(C(CC(=O)N1CCCC1C(OC)C(C)C(=O)NC(Cc1ccccc1)C(N)=O)OC)N(C)C(=O)C(NC(=O)C(C(C)C)N(C)C)C(C)C` (stereo not shown) [drawing 765 (R40 = H)], the IC50 with SKBR3 (setting [2]) is 0.32 nM; in the assay on MCF7 (setting [3]) it was 1.78 nM.
`COc1cc2cc(C(=O)N3C[C@@H](CCl)c4c3cc(OC(=O)[C@@H](N)C(C)C)c3ccccc43)[nH]c2c(OC)c1OC`: the values for the IC50 with NCI-N87 (setting [4]), in the assay with BT474 (setting [1]) and with SKBR3 (setting [2]) were 0.96 nM, 3.47 nM and 0.95 nM, respectively.
On to `CCC(C)C(C(CC(=O)N1CCCC1C(OC)C(C)C(=O)NC(Cc1ccccc1)C(=O)OCCN)OC)N(C)C(=O)C(NC(=O)C(C(C)C)N(C)C)C(C)C` (stereo not shown), for which the half-maximal inhibitory concentration (IC50) in the assay with NCI-N87 (setting [4]) stood at 0.89 nM.
On to `CCCO[C@H](C[C@H](C(C)C)N(CCC)C(=O)[C@@H](NC(=O)[C@H]1CCCCN1C)[C@@H](C)CC)c1nc(C(=O)N[C@@H](Cc2ccc(O)cc2)C[C@H](C)C(N)=O)cs1` [drawing 786 (R43 = H, R78 = -NH2)], for which the IC50 came out at 3.2 nM in the assay with NCI-N87 (setting [4]), 1.35 nM in the assay with BT474 (setting [1]), 1.6 nM with SKBR3 (setting [2]) and 3.3 nM in the assay with MCF7 (setting [3]).
In the case of `CCCO[C@H](C[C@H](C(C)C)N(CCC)C(=O)[C@@H](NC(=O)[C@H]1CCCCN1C)[C@@H](C)CC)c1nc(C(=O)N[C@@H](Cc2ccc(O)cc2)C[C@H](C)C(=O)OC)cs1` [drawing 786 (R43 = H, R78 = -OCH3)], the IC50 in the assay with SKBR3 (setting [2]) turned out to be 0.71 nM; in the assay with MCF7 (setting [3]), 3.02 nM.
As to `CCCO[C@H](C[C@H](C(C)C)N(CCC)C(=O)[C@@H](NC(=O)[C@H]1CCCCN1C)[C@@H](C)CC)c1nc(C(=O)N[C@@H](Cc2ccc(O)cc2)C[C@H](C)C(=O)OCCCN)cs1`, the IC50 with HCT15 (setting [5]) is 23 nM.
With `COc1cc2cc(C(=O)N3C[C@@H](CCl)c4c3cc(O)c3ccccc43)[nH]c2c(OC)c1OC` [drawing 780 (R91 = H)], the IC50 stood at 3.7 nM in the assay with BT474 (setting [1]), 1.05 nM in the assay on SKBR3 (setting [2]), 0.99 nM with MCF7 (setting [3]) and 1.75 nM in the assay on HCT15 (setting [5]).

The IC50 is the concentration that inhibits the measured activity by half.
